In PMC11375786, “Induction of Paraptotic Cell Death in Cancer Cells by Triptycene–Peptide Hybrids and the Revised Mechanism of Paraptosis II” (Biochemistry, 2024):
Read-outs that look alike come from different tables or passages of the source.

How the values were obtained:
A549 cells [1] = test: cells; conditions: 1 h
Description: (§1) HeLa S3 cells (human cervical carcinoma) were cultured in Minimum essential medium (MEM) containing 10% FBS, penicillin, and streptomycin. A549 cells (human lung carcinoma) and IMR90 cells (human fetal lung fibroblast) were cultured in Dulbecco’s modified Eagle’s medium (DMEM) with 10% FBS, penicillin, and streptomycin. All cells were cultured at 37 °C under a humidified atmosphere containing 5% CO2.
(§2) Jurkat, HeLa-S3, A549 cells (2.0 × 10^5 cells/mL) and IMR90 cells (1.0 × 10^5 cells/mL) were incubated in the presence of 3–7 for 1 h, and etoposide, cisplatin and celastrol for 24 h (50 μL) in cell culture medium under CO2 at 37 °C in 96-well plates (BD Falcon). MTT reagent (5 mg/mL) in PBS (10 μL) was then added to the cells. After incubation at 37 °C for 4 h, a formazan lysis solution (10% sodium dodecyl sulfate (SDS) in 0.01 N HCl) (100 μL) was added and the resultant solution was incubated overnight under the same conditions, which was followed by measurement of the absorbance at 570 nm using a microplate reader (ARVO, PerkinElmer).

HeLa-S3 cells [2] = test: cells; conditions: 1 h
Description: as §1, §2

IMR90 cells [3] = test: cells
Description: as §1, §2

Jurkat cells [4] = test: cells; conditions: 1 h
Description: as §1, §2

Jurkat cells [5] = type: cell-based; conditions: 1 h
Description: MTT reagent (5 mg/mL) in PBS (10 μL) was then added to the cells. After incubation at 37 °C for 4 h, a formazan lysis solution (10% sodium dodecyl sulfate (SDS) in 0.01 N HCl) (100 μL) was added and the resultant solution was incubated overnight under the same conditions, which was followed by measurement of the absorbance at 570 nm using a microplate reader (ARVO, PerkinElmer).

[6] = system: Ca^2+ concentrations in mitochondria and cytosol in Jurkat cells; test: Rhod-2/AM and Rhod-4/AM emission (mitochondrial and cytosolic Ca2+) in Jurkat cells; type: cell-based; conditions: 4 2.5 μM, 0–60 min
Description: (§3) Jurkat, HeLa-S3, and A549 cells (2.0 × 10^5 cells) were preincubated with Rhod-2/AM (final concentration = 5 μM) or Rhod-4/AM (final concentration = 5 μM) in medium under 5% CO2 at 37 °C for 30 min and then treated with 4 (final concentration = 2.5, 5, or 10 μM) for 0, 15, 30, 45, and 60 min. HeLa-S3 and A549 cells were detached by accutase, immediately after which the cells were suspended in 300 μL of cell culture medium and then analyzed on a flow cytometer (FACS Calibur cytometer, Becton), and the data were analyzed using the FlowJo software (FlowJo, LCC).
Jurkat, HeLa-S3, A549, and IMR90 cells (2.0 × 10^5 cells) were stained with Rhod-2/AM or Rhod-4/AM (final concentration = 5 μM) for 30 min at 37 °C under 5% CO2. […] After washing with PBS, the cells were observed via fluorescence microscopy (BZ-X800, Keyence) using a Greiner CELLview Petri dish (35 × 10 mm^2). […]
(§4) Jurkat, HeLa-S3, A549, and IMR90 cells (8.0 × 10^4 cells) were incubated with CCCP or 2-APB for 1 h and then stained with Rhod-2/AM or Rhod-4/AM (final concentration = 5 μM) for 30 min at 37 °C under 5% CO2. The cells were washed with PBS and were treated with 4 (final concentration = 2.5, 5, or 10 μM) in PBS for 0–60 min at 37 °C in a microplate reader (ARVO, PerkinElmer). Excitation at 540 nm and emission at 590 nm were used for the measurement of Rhod-2/AM and Rhod-4/AM on the microplate reader.

[7] = system: Ca^2+ concentrations in mitochondria and cytosol in HeLa-S3 cells; test: Rhod-2/AM and Rhod-4/AM emission (mitochondrial and cytosolic Ca2+) in HeLa-S3 cells; type: cell-based, human; conditions: 4 5 μM 1 h
Description: as §3
(§5) Jurkat, HeLa-S3, A549, and IMR90 cells (2.0 × 10^5 cells) were stained with Rhod-2/AM or Rhod-4/AM (final concentration = 5 μM) for 30 min at 37 °C under 5% CO2. The cells were washed with PBS and were treated with 4 (final concentration = 2.5, 5, or 10 μM) in cell culture medium for 30 and 60 min at 37 °C under 5% CO2. To test the effect of celastrol and cisplatin in HeLa-S3 and A549 cells, the cells were incubated with celastrol (final concentration = 100 μM) and cisplatin (final concentration = 100 μM) for 2–6 h. After washing with PBS, the cells were observed via fluorescence microscopy (BZ-X800, Keyence) using a Greiner CELLview Petri dish (35 × 10 mm^2). Emission images were observed using a TRITC filter (excitation 540 nm, emission 605 nm).
as §4

[8] = system: Ca^2+ concentrations in mitochondria and cytosol in A549 cells; test: Rhod-2/AM and Rhod-4/AM emission (mitochondrial and cytosolic Ca2+) in A549 cells; type: cell-based, human; conditions: 4 10 μM 1 h; celastrol 100 μM 2–6 h
Description: as §3, §5, §4

[9] = system: Ca^2+ concentrations in mitochondria in IMR90 cells; test: Rhod-2/AM emission (mitochondrial Ca2+) in IMR90 cells; type: cell-based, human; conditions: 4 5 μM, 0–60 min
Description: as §5, §4

Jurkat cells [10] = test: Costaining of ER and mitochondria (ERTracker Red, MitoTracker Green), confocal microscopy, Jurkat cells; type: cell-based; conditions: 4 2.5 μM, 15 min
Description: (§6) Jurkat, HeLa-S3, A549, and IMR90 cells (2.0 × 10^5 cells) were incubated with 4 (final concentration = 2.5 μM (for Jurkat), 5 μM (for HeLa-S3), 10 μM (for A549) and 5 μM and 50 μM (for IMR90)) in cell culture medium at 37 °C under 5% CO2. After incubation, MitoTracker Green (final concentration = 100 nM (for Jurkat) or 500 nM (for HeLa-S3, A549 and IMR90)), or ERTracker Red (final concentration = 500 nM (for Jurkat) or 1 μM (for HeLa-S3, A549 and IMR90)) were applied for 1 h under the same conditions. After washing with PBS, the cells were observed via confocal fluorescence microscopy (FluoView, FV-1000, Olympus). Excitation at 473 nm and emissions from 485 to 585 nm were used for detecting the MitoTracker Green. Excitation at 559 nm and emissions from 570 to 670 nm were used for detecting the ERTracker Red. Exposure time was 20 μs/pixel.

HeLa-S3 cells [11] = test: Costaining of ER and mitochondria (ERTracker Red, MitoTracker Green), confocal microscopy, HeLa-S3 cells; type: cell-based, human; conditions: 4 5 μM, 5 and 10 min; celastrol 100 μM
Description: as §6

A549 cells [12] = test: Costaining of ER and mitochondria (ERTracker Red, MitoTracker Green), confocal microscopy, A549 cells; type: cell-based, human; conditions: 4 10 μM, 15 min; celastrol 100 μM
Description: as §6

IMR90 cells [13] = test: Costaining of ER and mitochondria (ERTracker Red, MitoTracker Green), confocal microscopy, IMR90 cells; type: cell-based, human; conditions: 4 5 or 50 μM, 15 or 60 min
Description: as §6

[14] = system: labile Fe^2+ in mitochondria of Jurkat cells; test: Mito-FerroGreen fluorescence microscopy in Jurkat cells; type: cell-based; conditions: 4 2.5 μM 1 h; celastrol 5 μM, etoposide 5 μM, cisplatin 100 μM 24 h
Description: (§7) Jurkat cells (2.0 × 10^5 cells) were treated with 4 (2.5 μM), etoposide (5 μM), cisplatin (100 μM) and celastrol (5 μM) and stained with Mito-FerroGreen (a probe for labile Fe^2+ in mitochondria) (5 μM) and zinquin (a probe for intracellular Zn^2+) (25 μM). The cell images were observed via fluorescence microscopy.

[15] = system: intracellular Zn^2+ in Jurkat cells; test: Zinquin fluorescence microscopy in Jurkat cells; type: cell-based; conditions: 4 2.5 μM 1 h; celastrol 5 μM, etoposide 5 μM, cisplatin 100 μM 24 h
Description: as §7

EC50 (A549 cells [1]): 2400 ± 100 nM
EC50 (HeLa-S3 cells [2]): 1600 ± 100 nM
EC50 (IMR90 cells [3]; 1 h): > 12500 nM
EC50 (IMR90 cells [3]; 5 h): 4400 nM
EC50 (Jurkat cells [4]): 700 ± 100 nM
EC50 (Jurkat cells [5]): 1800 nM
SMILES: NCCCC[C@H](NC(=O)[C@H](CCCCN)NC(=O)[C@@H](N)CCCCN)C(=O)N[C@@H](CC1CCCCC1)C(=O)NCC(=O)NCCCCCCCCNC(=O)COc1cccc2c1C1c3c(OCC(=O)NCCCCCCCCNC(=O)CNC(=O)[C@H](CC4CCCCC4)NC(=O)[C@H](CCCCN)NC(=O)[C@H](CCCCN)NC(=O)[C@@H](N)CCCCN)cccc3C2c2cccc(OCC(=O)NCCCCCCCCNC(=O)CNC(=O)[C@H](CC3CCCCC3)NC(=O)[C@H](CCCCN)NC(=O)[C@H](CCCCN)NC(=O)[C@@H](N)CCCCN)c21 [compound 4]
Emission of Rhod-4/AM (cytosolic Ca2+) in Jurkat cells [6]: moderate∼weak enhancement
Emission of Rhod-4/AM (cytosolic Ca2+) in HeLa-S3 cells ([7]; celastrol 100 μM 2–6 h): negligible enhancement
Emission of Rhod-2/AM (mitochondrial Ca2+) in HeLa-S3 cells ([7]; celastrol or cisplatin 100 μM 2–6 h): enhancement of the red emission
Emission of Rhod-2/AM (mitochondrial Ca2+) in A549 cells [8]: enhancement of the red emission
Emission of Rhod-4/AM (cytosolic Ca2+) in A549 cells [8]: negligible enhancement
Emission of Rhod-2/AM (mitochondrial Ca2+) in IMR90 cells [9]: somewhat slower emission enhancement
Overlap of emission from MitoTracker Green and ERTracker Red in Jurkat cells (Jurkat cells [10]): considerable overlap
Overlap of emission from MitoTracker Green and ERTracker Red in HeLa-S3 cells (HeLa-S3 cells [11]): considerable overlap
Overlap of emission from MitoTracker Green and ERTracker Red in A549 cells (A549 cells [12]): considerable overlap
Overlap of emission from MitoTracker Green and ERTracker Red in IMR90 cells (IMR90 cells [13]): weak overlap
Emission from Mito-FerroGreen (free Fe2+ in mitochondria) in Jurkat cells [14]: negligibly enhanced
Emission from zinquin (intracellular free Zn2+) in Jurkat cells [15]: negligibly enhanced
